We go through six molecules from US7691861B2, “Indolymaleimide derivatives” (Novartis AG, priority 2004, dated 2010).

One assay concerns the target T1, Human recombinant PKCε (Homo sapiens, UniProt Q02156).
T1 construct: purchased Oxford Biomedical Research
T1 sequence (Q02156 1-737): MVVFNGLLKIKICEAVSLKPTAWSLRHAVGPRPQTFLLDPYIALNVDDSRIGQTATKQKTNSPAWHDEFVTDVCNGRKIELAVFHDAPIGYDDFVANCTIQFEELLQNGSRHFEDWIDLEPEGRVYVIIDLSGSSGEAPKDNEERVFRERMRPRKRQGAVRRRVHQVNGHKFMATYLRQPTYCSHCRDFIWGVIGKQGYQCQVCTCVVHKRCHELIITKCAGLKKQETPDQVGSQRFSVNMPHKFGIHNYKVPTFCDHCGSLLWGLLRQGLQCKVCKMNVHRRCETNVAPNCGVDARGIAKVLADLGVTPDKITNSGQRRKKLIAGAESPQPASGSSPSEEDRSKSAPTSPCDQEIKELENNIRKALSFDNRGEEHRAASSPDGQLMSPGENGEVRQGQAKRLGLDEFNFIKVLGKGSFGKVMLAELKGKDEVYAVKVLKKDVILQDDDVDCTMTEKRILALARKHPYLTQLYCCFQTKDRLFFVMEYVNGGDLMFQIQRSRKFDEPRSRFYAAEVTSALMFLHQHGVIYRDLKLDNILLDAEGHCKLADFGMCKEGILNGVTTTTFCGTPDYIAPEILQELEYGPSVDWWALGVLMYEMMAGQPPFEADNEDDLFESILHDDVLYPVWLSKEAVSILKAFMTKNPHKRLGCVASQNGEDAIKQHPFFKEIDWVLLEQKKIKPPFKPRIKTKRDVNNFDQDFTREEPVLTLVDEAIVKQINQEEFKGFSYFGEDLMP
As to the kind of experiment: Protein Kinase Cε Assay. The assay is classed as biochemical. The settings on record: 10 μM 33P-ATP. The method, then: (§1) The compounds of the invention are tested for their activity on different PKC isoforms according to the following method. Assay is performed in a white with clear bottom 384-well microtiterplate with non-binding surface. The reaction mixture (25 μl) contains 1.5 μM of a tridecapeptide acceptor substrate that mimics the pseudo substrate sequence of PKC α with the Ala→Ser replacement, 10 μM ^33P-ATP, 10 mM Mg(NO3)2, 0.2 mM CaCl2, […] at a protein concentration varying from 25 to 400 ng/ml (depending on the isotype used), lipid vesicles (containing 30 mol % phosphatidylserine, 5 mol % DAG and 65 mol % phosphatidylcholine) at a final lipid concentration of 0.5 mM, in 20 mM Tris-HCl buffer pH 7.4+0.1% BSA. Incubation is performed for 60 min at room temperature.
Human recombinant PKCε is obtained from Oxford Biomedical Research and is used under the assay conditions as described under Section A.1 above.

For another assay, the target named is Human recombinant PKCθ (Homo sapiens, UniProt Q04759). As to the kind of experiment: Protein Kinase Cθ Assay. In kind it is biochemical. The conditions noted are these: 10 μM 33P-ATP. The method, then: as §1
Human recombinant PKCθ is used under the assay conditions as described above.

For another assay, the target named is T2, Human recombinant PKCη (Homo sapiens, UniProt P24723).
T2 construct: purchased PanVera
As to the kind of experiment: Protein Kinase Cη Assay. In kind it is biochemical. The conditions noted are these: 10 μM 33P-ATP. The method, then: as §1
Human recombinant PKCη is obtained from PanVera and is used under the assay conditions as described under Section A.1 above.

A further assay deals with T3, Human recombinant PKCδ (Homo sapiens, UniProt Q05655).
T3 construct: purchased Oxford Biomedical Research
As to the kind of experiment: Protein Kinase Cδ Assay. The conditions noted are these: 10 μM 33P-ATP. The assay is classed as biochemical. The method, then:
as §1
Human recombinant PKCδ is obtained from Oxford Biomedical Research and is used under the assay conditions as described under Section A.1 above.

Assay [1] concerns spleen cells from CBA and BALB/c mice. As to the kind of experiment: Allogeneic Mixed Lymphocyte Reaction (MLR). The assay is classed as cell-based. The settings on record: CBA and BALB/c mouse spleen cells, 3H-thymidine incorporation after four days, read-out: IC50, inhibition of proliferation in two-way MLR. The method, then:
Briefly, spleen cells from CBA and BALB/c mice (1.6×10^5 cells from each strain per well in flat bottom tissue culture microtiter plates, 3.2×10^5 in total) are incubated in RPMI medium containing 10% FCS, 100 U/ml penicillin, 100 μg/ml streptomycin (Gibco BRL, Basel, Switzerland), 50 μM 2-mercaptoethanol (Fluka, Buchs, Switzerland) and serially diluted compounds. Seven three-fold dilution steps in duplicates per test compound are performed. After four days of incubation 1 μCi ^3H-thymidine is added. Cells are harvested after an additional five-hour incubation period, and incorporated ^3H-thymidine is determined according to standard procedures. Background values (low control) of the MLR are the proliferation of BALB/c cells alone. Low controls are subtracted from all values. High controls without any sample are taken as 100% proliferation.
In general terms: Uptake of a labelled nucleoside into DNA is a usual measure of proliferation.

The target in another assay is T4, Human recombinant PKCβ1 (Homo sapiens, UniProt P05771).
T4 construct: purchased Oxford Biomedical Research
As to the kind of experiment: Protein Kinase Cβ1 Assay. In kind it is biochemical. The conditions noted are these: human recombinant PKCβ1, 10 μM 33P-ATP. The method, then:
as §1
Human recombinant PKCβ1 is obtained from Oxford Biomedical Research and is used under the assay conditions as described under Section A.1 above.

Another assay deals with T5, Human recombinant PKCα (Homo sapiens, UniProt P17252).
T5 construct: purchased Oxford Biomedical Research
As to the kind of experiment: Protein Kinase Cα Assay. The assay is classed as biochemical. The conditions noted are these: 10 μM 33P-ATP. The method, then:
as §1
Human recombinant PKCα is obtained from Oxford Biomedical Research and is used under the assay conditions as described under Section A.1 above.

Assay [2] deals with Jurkat cells transfected with a human interleukin-2 promoter/reporter gene construct. As to the kind of experiment: CD28 Costimulation Assay. In kind it is cell-based. The settings on record: IL-2 promoter luciferase reporter, 5.5 hours, read-out: IC50, inhibition of anti-T cell receptor/anti-CD28 and PMA/ionomycin stimulated Jurkat cells. The method, then:
The assay is performed with Jurkat cells transfected with a human interleukin-2 promoter/reporter gene construct as described by Baumann G et al. in Transplant. Proc. 1992; 24:43-8, the β-galactosidase reporter gene being replaced by the luciferase gene (de Wet J., et al., Mol. Cell. Biol. 1987, 7(2), 725-737). Cells are stimulated by solid phase-coupled antibodies or phorbol myristate acetate (PMA) and the Ca^++ ionophore ionomycin as follows. For antibody-mediated stimulation Microlite TM1 microtiter plates (Dynatech) are coated with 3 μg/ml goat anti-mouse IgG Fc antibodies (Jackson) in 55 μl phosphate-buffered saline (PBS) per well for three hours at RT. Plates are blocked after removing the antibodies by incubation with 2% bovine serum albumin (BSA) in PBS (300 μl per well) for 2 hours at RT. […] After incubation for 5.5 hours at 37° C. in 5% CO2, the level of luciferase is determined by bioluminescence measurement. […] Luciferase activity is assessed with a bioluminescence reader (Labsystem, Helsinki, Finland) after automatic addition of 50 μl per well luciferase reaction buffer containing 20 mM Tricine, 1.07 mM (MgCO3)4Mg(OH)2×5H2O, 2.67 mM MgSO4, 0.1 mM EDTA, 33.3 mM DTT, 270 μM coenzyme A, 470 μM luciferin (Chemie Brunschwig AG), 530 μM ATP, pH 7.8. […] The inhibition obtained in the presence of a test compound is calculated as percent inhibition of the high control.
On the technique in general: In a reporter assay the amount or activity of a reporter protein is the signal.

T3 sequence (Q05655 whole entry): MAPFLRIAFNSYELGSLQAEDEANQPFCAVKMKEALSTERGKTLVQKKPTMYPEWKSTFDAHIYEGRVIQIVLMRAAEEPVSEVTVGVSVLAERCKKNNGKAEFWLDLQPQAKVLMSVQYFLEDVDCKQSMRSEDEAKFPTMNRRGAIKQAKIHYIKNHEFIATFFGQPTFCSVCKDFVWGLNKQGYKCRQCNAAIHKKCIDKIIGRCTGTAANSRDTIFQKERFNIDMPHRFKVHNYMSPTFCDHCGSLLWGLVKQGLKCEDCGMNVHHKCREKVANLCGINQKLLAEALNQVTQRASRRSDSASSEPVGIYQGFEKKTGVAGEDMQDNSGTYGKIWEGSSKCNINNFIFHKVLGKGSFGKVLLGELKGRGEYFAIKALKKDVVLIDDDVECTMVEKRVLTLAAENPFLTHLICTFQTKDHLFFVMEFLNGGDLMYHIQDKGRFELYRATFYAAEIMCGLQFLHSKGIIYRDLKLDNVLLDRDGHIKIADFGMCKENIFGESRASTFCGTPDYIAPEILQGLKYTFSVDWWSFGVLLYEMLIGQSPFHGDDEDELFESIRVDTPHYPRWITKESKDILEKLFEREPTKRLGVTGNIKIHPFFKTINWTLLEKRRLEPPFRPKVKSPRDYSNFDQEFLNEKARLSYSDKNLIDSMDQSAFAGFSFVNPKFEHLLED
T4 sequence (P05771 whole entry): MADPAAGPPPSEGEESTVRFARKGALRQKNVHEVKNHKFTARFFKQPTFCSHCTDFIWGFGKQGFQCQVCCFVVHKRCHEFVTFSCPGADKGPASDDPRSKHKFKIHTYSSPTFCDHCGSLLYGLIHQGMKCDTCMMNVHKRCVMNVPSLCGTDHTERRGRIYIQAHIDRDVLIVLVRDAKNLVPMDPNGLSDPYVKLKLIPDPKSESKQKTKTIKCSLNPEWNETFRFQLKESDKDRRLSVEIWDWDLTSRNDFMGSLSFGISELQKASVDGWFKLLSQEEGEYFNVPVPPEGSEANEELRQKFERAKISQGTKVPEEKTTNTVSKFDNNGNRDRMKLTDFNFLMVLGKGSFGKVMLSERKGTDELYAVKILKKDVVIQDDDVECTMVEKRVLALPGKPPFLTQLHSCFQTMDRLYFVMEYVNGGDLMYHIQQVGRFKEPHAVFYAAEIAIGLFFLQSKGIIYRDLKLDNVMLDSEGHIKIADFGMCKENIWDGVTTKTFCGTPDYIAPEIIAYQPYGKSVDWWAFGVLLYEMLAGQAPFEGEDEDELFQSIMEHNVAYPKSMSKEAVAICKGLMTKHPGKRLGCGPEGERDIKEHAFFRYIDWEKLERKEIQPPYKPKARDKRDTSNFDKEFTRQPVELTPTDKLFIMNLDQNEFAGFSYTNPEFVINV
T2 sequence (P24723 whole entry): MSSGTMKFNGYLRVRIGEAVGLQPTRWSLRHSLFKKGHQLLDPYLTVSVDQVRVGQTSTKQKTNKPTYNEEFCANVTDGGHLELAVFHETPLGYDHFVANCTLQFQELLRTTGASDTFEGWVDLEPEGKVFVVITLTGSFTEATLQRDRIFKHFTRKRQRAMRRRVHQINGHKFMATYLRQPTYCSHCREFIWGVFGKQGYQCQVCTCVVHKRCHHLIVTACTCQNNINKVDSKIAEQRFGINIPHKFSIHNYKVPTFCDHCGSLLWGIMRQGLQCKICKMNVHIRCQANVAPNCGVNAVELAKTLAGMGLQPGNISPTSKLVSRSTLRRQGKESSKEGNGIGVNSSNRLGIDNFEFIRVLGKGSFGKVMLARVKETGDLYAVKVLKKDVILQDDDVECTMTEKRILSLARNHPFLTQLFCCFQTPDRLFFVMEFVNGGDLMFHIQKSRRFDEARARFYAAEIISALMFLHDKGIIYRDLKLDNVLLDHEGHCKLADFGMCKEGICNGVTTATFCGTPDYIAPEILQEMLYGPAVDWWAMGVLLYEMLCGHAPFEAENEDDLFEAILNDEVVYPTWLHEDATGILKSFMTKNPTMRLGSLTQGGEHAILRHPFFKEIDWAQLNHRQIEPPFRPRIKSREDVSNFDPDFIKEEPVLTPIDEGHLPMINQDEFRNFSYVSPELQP
Human recombinant PKCθ, sequence (Q04759 whole entry): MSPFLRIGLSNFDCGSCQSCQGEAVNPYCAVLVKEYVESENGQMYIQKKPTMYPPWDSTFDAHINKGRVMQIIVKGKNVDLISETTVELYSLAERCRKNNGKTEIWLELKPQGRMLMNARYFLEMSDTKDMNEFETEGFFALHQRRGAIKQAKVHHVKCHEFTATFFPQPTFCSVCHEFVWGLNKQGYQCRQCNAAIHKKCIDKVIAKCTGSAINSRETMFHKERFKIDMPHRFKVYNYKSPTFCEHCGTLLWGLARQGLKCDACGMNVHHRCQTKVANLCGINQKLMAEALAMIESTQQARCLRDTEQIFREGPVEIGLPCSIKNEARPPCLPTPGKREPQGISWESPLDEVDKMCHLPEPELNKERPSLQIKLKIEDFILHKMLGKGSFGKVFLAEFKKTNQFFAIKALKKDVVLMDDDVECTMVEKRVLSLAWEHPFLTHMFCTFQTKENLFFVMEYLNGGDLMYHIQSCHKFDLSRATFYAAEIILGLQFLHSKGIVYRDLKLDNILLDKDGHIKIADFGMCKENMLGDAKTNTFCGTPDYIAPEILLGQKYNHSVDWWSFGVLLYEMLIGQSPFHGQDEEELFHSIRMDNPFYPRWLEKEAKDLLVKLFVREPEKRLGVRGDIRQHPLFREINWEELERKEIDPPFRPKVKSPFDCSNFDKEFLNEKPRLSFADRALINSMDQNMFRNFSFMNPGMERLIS

On to `CN(C)Cc1ccc2c(C3=C(c4cn(C)c5ccccc45)C(=O)NC3=O)c(Cl)ccc2c1` [example 1, 3-(2-Chloro-6-dimethylaminomethyl-naphthalen-1-yl)-4-(1-methyl-1H-indol-3-yl)-pyrrole-2,5-dione], for which the IC50 at Human recombinant PKCε was determined as 17.6 nM; at Human recombinant PKCθ it was 19.2 nM.

Regarding `Cc1cccc2c(C3=C(c4cccc5cc(CN)ccc45)C(=O)NC3=O)c[nH]c12` [example 3], the IC50 on Human recombinant PKCη is 53.9 nM.

As for `CN(C)Cc1ccc2c(C3=C(c4c[nH]c5ccccc45)C(=O)NC3=O)c(Cl)ccc2c1` [example 4], the IC50 on Human recombinant PKCη is 7.2 nM; on Human recombinant PKCδ, 9.4 nM.

For `Cc1cccc2c(C3=C(c4c(Cl)ccc5cc(CN(C)C)ccc45)C(=O)NC3=O)c[nH]c12` [example 5], the IC50 was 183 nM in assay [1]; 2.3 nM on Human recombinant PKCβ1; 0.9 nM on Human recombinant PKCα; 11.5 nM in assay [2]; 4.5 nM at Human recombinant PKCδ.

Regarding `CNCc1ccc2c(C3=C(c4c[nH]c5ccccc45)C(=O)NC3=O)c(Cl)ccc2c1` [example 6], the IC50 on Human recombinant PKCα came to 1.1 nM; on Human recombinant PKCε, 2.3 nM.

With `CNCc1ccc2c(C3=C(c4c[nH]c5c(C)cccc45)C(=O)NC3=O)c(Cl)ccc2c1` [example 7], the IC50 in assay [1] was 528 nM; on Human recombinant PKCβ1, 2.8 nM; in assay [2] it was 27.5 nM; at Human recombinant PKCθ it was 6.4 nM.
